Measurements taken from publication PMC9228089, “1,5-Benzothiazepine Derivatives: Green Synthesis, In Silico and In Vitro Evaluation as Anticancer Agents” (Molecules, 2022).

Experiments:
GSK-3β = GSK-3β (Homo sapiens, UniProt P49841); assay: GSK-3β inhibitory assay (Kinase-Glo luminescence); conditions: for inhibition at 50 µM: read-out: % of Inhibition at 50 µM, 50 µM, triplicate
Protocol: Briefly, the assay procedure was as follows. […] The activity was determined by the difference between total and consumed ATP. The inhibition activity was determined using the maximal activity in the absence of the inhibitor and the maximal inhibition in the presence of the reference drug. IC50 values were determined using the GraphPad Prism 4.0 tool (GraphPad Software Inc., San Diego, CA, USA).

L02 = assay: MTT cytotoxicity assay, embryonic liver cell line (selective toxicity); type: cell-based; conditions: for inhibition at 100 µM: L02, human embryonic liver cell line
Protocol: (§1) HepG-2, and DU-145 human tumor cell lines were grown in DMEM medium supplemented with Glutamax-I and glucose. A pseudo-normal human embryonic liver cell line (L02) was used to study the cytotoxicity of the synthesized compounds. The cell culture medium was supplemented with fetal calf serum (10% v/v), penicillin (100 IU/mL), and streptomycin (100 µg/mL), then preserved at 37 °C.
(§2) A spectrophotometric MTT reagent assay was employed to assess the cytotoxic activity of the synthesized compounds. In brief, the grown cells (approx. 5 × 10^3 count) were placed in each well of a 96-well plate and 100 µL of the culture medium was added along with the synthesized compounds (1–100 µmol/L). The well plate was subjected to incubation for 72 h; later, 10 µL of MTT (5 mg/mL) was added to each well. The well plate was further incubated for 4 h at 37 °C. The resulting insoluble formazan was dissolved by adding sodium dodecyl sulfate (100 µL, 10%) to each well and continuing incubation for an additional 12 h. Later, the 96-well plate was used to measure the absorbance at the 540 nm and 630 nm reference wavelengths using the spectrophotometer. The blank absorbance was treated as a control and the IC50 values were determined by a non-linear regression model with the help of normalized dose-response data acquired via MTT assay.

DU-145 = assay: MTT cytotoxicity assay, prostate cancer cell line; type: cell-based, human
Protocol: as §1, §2

Hep G-2 = assay: MTT cytotoxicity assay, liver cancer cell line; type: cell-based, human
Protocol: as §1, §2

Sequence of GSK-3β (P49841 whole entry): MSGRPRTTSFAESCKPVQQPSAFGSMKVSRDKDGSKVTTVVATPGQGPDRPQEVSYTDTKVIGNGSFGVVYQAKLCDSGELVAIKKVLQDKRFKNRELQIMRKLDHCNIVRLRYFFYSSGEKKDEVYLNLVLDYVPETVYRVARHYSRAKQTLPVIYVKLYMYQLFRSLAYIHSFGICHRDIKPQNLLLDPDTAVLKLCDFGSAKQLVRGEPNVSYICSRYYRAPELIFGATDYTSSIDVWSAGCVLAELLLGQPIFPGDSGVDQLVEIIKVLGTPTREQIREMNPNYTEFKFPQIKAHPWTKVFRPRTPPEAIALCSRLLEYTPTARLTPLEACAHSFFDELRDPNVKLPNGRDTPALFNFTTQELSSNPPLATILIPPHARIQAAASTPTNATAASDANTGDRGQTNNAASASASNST

| Compound | inhibition at 50 µM (GSK-3β) | inhibition at 100 µM (L02) | IC50 (DU-145; Homo sapiens, DU-145, 72 h) | IC50 (Hep G-2; Homo sapiens, HepG2, 72 h) | melting point | % of Inhibition at 50 µM (GSK-3β) | % Inhibition (100 µM) L02 (L02; human embryonic liver cell line) | IC50 (DU-145; 72 h) | IC50 (Hep G-2; 72 h) |
| --- | --- | --- | --- | --- | --- | --- | --- | --- | --- |
| Cc1ccc2c(c1)N=C(c1cc(I)cc(I)c1O)CC(c1ccc(N(C)C)cc1)S2 (stereo not drawn) [2a, 2-(2-(4-(dimethylamino)phenyl)-7-methyl-2,3-dihydrobenzo[b][1,4]thiazepin-4-yl)-4,6-diiodophenol] | 62.4 ± 2.21% | 28.2 ± 1.68% | 32.74 ± 0.13 µM | 7.52 ± 0.13 µM | 230 to 232 °C | – | – | – | – |
| Cc1ccc2c(c1)N=C(c1cc(C)cc(I)c1O)CC(c1ccc(N(C)C)cc1)S2 (stereo not drawn) [2b, 2-(2-(4-(dimethylamino)phenyl)-7-methyl-2,3-dihydrobenzo[b][1,4]thiazepin-4-yl)-6-iodo-4-methylphenol] | 60.7 ± 2.85% | 19.6 ± 0.97% | 41.34 ± 0.12 µM | 8.26 ± 0.26 µM | 218 to 220 °C | – | – | – | – |
| Cc1ccc2c(c1)N=C(c1cc(Cl)cc(Cl)c1O)CC(c1ccc(N(C)C)cc1)S2 (stereo not drawn) [2c, 2,4-dichloro-6-(2-(4-(dimethylamino)phenyl)-7-methyl-2,3-dihydrobenzo[b][1,4]thiazepin-4-yl)phenol] | > 90% | 19.3 ± 1.25% | 20.45 ± 0.19 µM | 3.29 ± 0.15 µM | 222 to 224 °C | – | – | – | – |
| Cc1ccc2c(c1)N=C(c1cc(Cl)cc(I)c1O)CC(c1ccc(N(C)C)cc1)S2 (stereo not drawn) [2d, 4-chloro-2-(2-(4-(dimethylamino)phenyl)-7-methyl-2,3-dihydrobenzo[b][1,4]thiazepine-4-yl)-6-iodophenol] | 61.1 ± 1.98% | 31.4 ± 1.14% | 36.17 ± 0.14 µM | 7.89 ± 0.22 µM | 244 to 246 °C | – | – | – | – |
| Cc1ccc2c(c1)N=C(c1cc(C)cc(Br)c1O)CC(c1ccc(N(C)C)cc1)S2 (stereo not drawn) [2e, 2-bromo-6-(2-(4-(dimethylamino)phenyl)-7-methyl-2,3-dihydrobenzo[b][1,4]thiazepine-4-yl)-4-methylphenol] | 66.6 ± 2.51% | 52.2 ± 1.42% | 37.52 ± 0.27 µM | 6.87 ± 0.15 µM | 244 to 246 °C | – | – | – | – |
| Cc1ccc2c(c1)N=C(c1cc(Cl)cc(Br)c1O)CC(c1ccc(N(C)C)cc1)S2 (stereo not drawn) [2f, 2-bromo-4-chloro-6-(2-(4-(dimethylamino)phenyl)-7-methyl-2,3-dihydrobenzo [b][1,4]thiazepin-4-yl)phenol] | 89.7 ± 1.65% | 28.4 ± 1.18% | 24.58 ± 0.13 µM | 4.38 ± 0.11 µM | 244 to 246 °C | – | – | – | – |
| Cc1ccc2c(c1)N=C(c1cc(Br)cc(Br)c1O)CC(c1ccc(N(C)C)cc1)S2 (stereo not drawn) [2g, 2,4-dibromo-6-(2-(4-(dimethylamino)phenyl)-7-methyl-2,3-dihydrobenzo[b][1,4]hiazepine-4-yl)phenol] | – | – | – | – | – | 87.62 ± 2.54% | 15.56 ± 1.29% | 28.53 ± 0.14 µM | 8.32 ± 0.16 µM |
| Cc1ccc2c(c1)N=C(c1cc(Br)cc(I)c1O)CC(c1ccc(N(C)C)cc1)S2 (stereo not drawn) [2h, 4-bromo-2-(2-(4-(dimethylamino)phenyl)-7-methyl-2,3-dihydrobenzo[b][1,4]thiazepin-4-yl)-6-iodophenol] | 61.9 ± 3.47% | 46.1 ± 1.05% | 36.8 ± 0.18 µM | 8.56 ± 0.14 µM | 244 to 246 °C | – | – | – | – |
| CN(Cc1cnc2nc(N)nc(N)c2n1)c1ccc(C(=O)N[C@@H](CCC(=O)O)C(=O)O)cc1 [Methotrexate, reference compound] | – | 78.2 ± 1.86% | 21.96 ± 0.15 µM | 4.68 ± 0.17 µM | – | – | – | – | – |
